# In patent US7915293B2, “Ubiquitin ligase inhibitors” (Rigel Pharmaceuticals, Inc., priority 2003, dated 2011):
# Columns and labels:
# Design in all cases: key: “+” indicates that the compound exibits inhibitory activity; “−” indicates that low or no inhibitory activity was observed
# HeLa cells = assay: Cell proliferation assay, photographic image analysis of proliferation, apoptosis and death (PAD assay), HeLa; format: cell-based; conditions: 6 concentrations tested
# Description: (§1) A549 (ATCC# CCL-185), HeLa (ATCC# CCL-2), HCT116 (ATCC# CCL-247), and H1299 (ATCC# CRL-5803) cells were maintained in T175 flasks following the ATCC recommended media and handling procedures. Flasks reaching approximately 70% confluency were trypsinized and resuspended in RPMI media (Cell-Gro catalog number 10-040-CM) modified to contain 5% FBS, 100 ug/mlPen/Strep (Cell-Gro catalog number 30-002-CL), and 0.3 mg/ml L-Glutamine (Cell-Gro catalog number 25-003-CL). A 20,000 cells/ml solution was made for plating. Cells were plated in black Packard 96 well plates by placing 100 μl per well (2,000 cells per well).
# (§2) Compounds and additional media were added 24 hours after cell plating. A compound master plate was created with concentrations 500 times greater than the final concentration added to the cells. All compound testing was done in duplicate using 6.3 fold dilutions starting with 10 mM. All outside wells (and 4 internal wells) were DMSO controls. Taxol and at least one additional control were run on all plates. Three microliters of the compound master plate were added to deep well blocks containing 750 μl of RPMI media. One hundred microliters were transferred from the compound/media deep well blocks to the plated cells resulting in a 500 fold dilution of the compounds. Cells were grown at 37° C., 5% CO2 for 48 hours.
# (§3) Cells to be analyzed by photography were fixed and stained. One hundred microliters of media were removed and 100 μl of 9.3% […] was added to each well. Plates were left on the benchtop for 45 minutes. A staining solution containing 1.55 μl of 1 mg/ml DAPI added to 18.75 ml PBS was warmed for 15 minutes at 37° C. The cells were aspirated prior to washing with 100 μl of PBS. Seventy microliters of PBS were aspirated and 170 μl of the DAPI solution were added to each well of fixed cells. Plates were left at room temperature for one hour then aspirated and washed twice with 100 μl of PBS. The stained cells were left at 4° C. for a minimum of 16 hours before photographic analysis with Array Scan II (Cellomics). Analysis of the photographic images to determine numbers of live cells (proliferation), apoptotic cells and dead cells, were according to the methods described in U.S. Provisional Patent Application Ser. No. 60/406,714, which incorporated herein in its entirety.
# [1] = target: E3 (His-APC11/APC2-"APC") (Homo sapiens, UniProt Q9NYG5+Q9UJX6); assay: Plate-based E3 ligase assay (APC FLAG), auto-ubiquitination; format: biochemical; conditions: for APC Flag 8 pt: 8 concentrations tested
# Method in brief: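 His-APC11/APC2 auto-ubiquitination was run in casein-blocked nickel plates for 1 h at room temperature, with E1 at 5 ng/well, UbcH5c at 20 ng/well and APC at 100 ng/well. Buffer was 62.5 mM Tris pH 7.6, 3 mM MgCl2, 1 mM DTT, 2.5 mM ATP and Flag-ubiquitin at 100 ng/well. Detection used anti-Flag/HRP chemiluminescence, and IC50 was typically from 6 or 8 concentrations versus a DMSO control.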
# A549 cells = assay: Cell proliferation assay, photographic image analysis of proliferation, apoptosis and death (PAD assay), A549; format: cell-based; conditions: 6 concentrations tested
# Description: as §1, §2, §3
# E3 (His-APC11/APC2-"APC"), sequence (Q9NYG5 whole entry): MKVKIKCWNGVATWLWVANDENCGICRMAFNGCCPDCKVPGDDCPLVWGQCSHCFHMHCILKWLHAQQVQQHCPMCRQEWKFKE
# E3 (His-APC11/APC2-"APC"), sequence (Q9UJX6 whole entry): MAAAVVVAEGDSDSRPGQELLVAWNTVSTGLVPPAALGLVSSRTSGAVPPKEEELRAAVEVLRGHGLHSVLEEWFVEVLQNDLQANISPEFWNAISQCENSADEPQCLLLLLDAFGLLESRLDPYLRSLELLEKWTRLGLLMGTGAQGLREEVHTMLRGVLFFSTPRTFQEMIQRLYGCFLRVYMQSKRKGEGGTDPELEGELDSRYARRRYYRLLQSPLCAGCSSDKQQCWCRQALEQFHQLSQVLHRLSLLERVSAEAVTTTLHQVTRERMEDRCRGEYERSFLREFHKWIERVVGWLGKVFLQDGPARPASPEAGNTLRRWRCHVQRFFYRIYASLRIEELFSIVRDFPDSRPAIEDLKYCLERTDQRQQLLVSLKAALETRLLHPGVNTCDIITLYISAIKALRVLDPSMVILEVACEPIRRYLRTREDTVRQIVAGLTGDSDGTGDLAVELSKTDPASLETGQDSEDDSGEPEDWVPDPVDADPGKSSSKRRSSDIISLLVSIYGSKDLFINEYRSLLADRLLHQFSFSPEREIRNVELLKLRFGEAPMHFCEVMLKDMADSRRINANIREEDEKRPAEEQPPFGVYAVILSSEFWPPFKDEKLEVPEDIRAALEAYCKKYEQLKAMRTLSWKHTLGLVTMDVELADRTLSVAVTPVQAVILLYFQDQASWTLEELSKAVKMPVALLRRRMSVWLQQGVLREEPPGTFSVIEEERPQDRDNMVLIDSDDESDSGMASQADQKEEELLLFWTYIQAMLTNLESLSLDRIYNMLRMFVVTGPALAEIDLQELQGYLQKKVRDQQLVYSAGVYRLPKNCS
Structure (SMILES),"PAD Assay, HELA 6 pt (HeLa cells)",APC Flag 8 pt [1],"PAD Assay, A549 6 pt (A549 cells)",APC Flag (2 pt) ([1]; 2 concentrations tested)
"O=[N+]([O-])c1ccc(Oc2c(Cl)cc(S(=O)(=O)Nc3ccc(Oc4cc(C(F)(F)F)ccc4Cl)cc3F)cc2Cl)c(Cl)c1 [Example 290, 3,5-dichloro-4-(2-chloro-4-nitrophenoxy)-N-{4-[2-chloro-5-(trifluoromethyl)phenoxy]-2-fluorophenyl}benzenesulfonamide]",+,+,+,
"Cc1c(F)cccc1NS(=O)(=O)c1cc(Cl)c(Oc2ccc([N+](=O)[O-])cc2Cl)c(Cl)c1 [Example 234, 3,5-dichloro-4-(2-chloro-4-nitrophenoxy)-N-(3-fluoro-2-methylphenyl)benzene-sulfonamide]",+,+,+,
"O=[N+]([O-])c1ccc(Oc2c(Cl)cc(S(=O)(=O)Nc3ccccn3)cc2Cl)c(Cl)c1 [Compound 216, 3,5-dichloro-4-(2-chloro-4-nitrophenoxy)-N-pyridin-2-ylbenzenesulfonamide]",+,,+,− (2 pt)
"Cc1c(Cl)cccc1S(=O)(=O)Nc1ccc(Oc2ccc(F)cc2)c(Br)c1 [Example 281, N-[3-bRomo-4-(4-fluorophenoxy)phenyl]-3-chloro-2-methylbenzenesulfonamide]",+,+,+,
"CC(C)(C)c1cccc(C(C)(C)C)c1NS(=O)(=O)c1cc(Cl)c(Oc2ccc([N+](=O)[O-])cc2Cl)c(Cl)c1 [Example 231, 3,5-dichloro-4-(2-chloro-4-nitrophenoxy)-N-(2,6-di-tert-butylphenyl)benzenesulfonamide]",+,+,+,
"Cc1ccc(Cl)cc1NS(=O)(=O)c1cc(Cl)c(Oc2ccc([N+](=O)[O-])cc2Cl)c(Cl)c1 [Example 252, 3,5-dichloro-N-(5-chloro-2-methylphenyl)-4-(2-chloro-4-nitrophenoxy)benzene-sulfonamide]",+,+,+,
"Cc1cc2cc(NS(=O)(=O)c3cc(Cl)c(Oc4ccc([N+](=O)[O-])cc4Cl)c(Cl)c3)ccc2[nH]1 [Compound 244, 3,5-dichloro-4-(2-chloro-4-nitrophenoxy)-N-(2-methyl-1H-indol-5-yl)benzene sulfonamide]",+,+,+,
"O=S(=O)(Nc1ccc(Oc2ccc(F)cc2)c(Br)c1)c1ccc(OC(F)(F)F)cc1 [Example 284, N-[3-bRomo-4-(4-fluorophenoxy)phenyl]-4-(trifluoromethoxy)benzenesulfonamide]",+,+,+,
"COc1ccc(S(=O)(=O)Nc2ccc(Oc3cc(C(F)(F)F)ccc3Cl)cc2F)cc1 [Compound 287, N-{4-[2-chloro-5-(trifluoromethyl)phenoxy]-2-fluorophenyl}-4-methoxybenzenesulfonamide]",+,+,+,
"O=[N+]([O-])c1ccc(Oc2ccc(NS(=O)(=O)c3cc(Cl)ccc3Cl)cc2)cc1 [Compound 273, 2,5-dichloro-N-[4-(4-nitrophenoxy)phenyl]benzenesulfonamide]",−,+,+,
"O=S(=O)(Nc1ccc(Oc2ncc(C(F)(F)F)cc2Cl)cc1)c1ccccc1C(F)(F)F [Example 296, N-(4-(3-chloro-5-(trifluoromethyl)pyridin-2-yloxy)phenyl)-2-(trifluoromethyl)benzenesulfonamide]",−,−,+,
"O=S(=O)(Nc1ccc(F)c(Cl)c1)c1ccc(Oc2ncc(C(F)(F)F)cc2Cl)cc1 [Example 256, N-(3-chloro-4-fluorophenyl)-4-{[3-chloro-5-(trifluoromethyl)pyridin-2-yl]oxy}benzene-sulfonamide]",+,+,+,
"O=S(=O)(Nc1cc(F)ccc1F)c1ccc(Oc2ncc(C(F)(F)F)cc2Cl)cc1 [Example 269, 4-{[3-chloro-5-(trifluoromethyl)pyridin-2-yl]oxy}-N-(2,5-difluorophenyl)benzene-sulfonamide]",−,+,−,
"O=S(=O)(Nc1cc(Cl)ccc1C(F)(F)F)c1ccc(Oc2ncc(C(F)(F)F)cc2Cl)cc1 [Compound 272, N-[5-chloro-2-(trifluoromethyl)phenyl]-4-{[3-chloro-5-(trifluoromethyl)pyridin-2-yl]oxy}benzenesulfonamide]",+,+,+,
"Cc1ccc(NS(=O)(=O)c2cc(Cl)c(Oc3ccc([N+](=O)[O-])cc3Cl)c(Cl)c2)cc1I [Example 250, 3,5-dichloro-4-(2-chloro-4-nitrophenoxy)-N-(3-iodo-4-methylphenyl)benzenesulfonamide]",+,+,+,
"O=S(=O)(Nc1cc(Cl)cnc1Cl)c1ccc(Oc2ncc(C(F)(F)F)cc2Cl)cc1 [Compound 257, 4-{[3-chloro-5-(trifluoromethyl)pyridin-2-yl]oxy}-N-(2,5-dichloropyridin-3-yl) benzenesulfonamide]",+,+,+,
"O=[N+]([O-])c1ccc(Oc2ccc(NS(=O)(=O)c3cccc(Cl)c3)cc2)cc1 [Example 275, 3-chloro-N-[4-(4-nitrophenoxy)phenyl] benzenesulfonamide]",−,+,+,
"O=S(=O)(Nc1ccc(Oc2cc(C(F)(F)F)ccc2Cl)cc1F)c1cc(Cl)ccc1Cl [Example 277, 2,5-dichloro-N-{4-[2-chloro-5-(trifluoro-methyl)phenoxy]-2-fluorophenyl}benzene-sulfonamide]",+,+,+,
"O=[N+]([O-])c1ccc(Oc2ccc(S(=O)(=O)Nc3cccc(Br)c3)cc2Cl)c(C(F)(F)F)c1 [Example 270, N-(3-bRomophenyl)-3-chloro-4-[4-nitro-2-(trifluoromethyl)phenoxy]benzenesulfonamide]",+,+,+,
"Cc1c(Cl)cccc1S(=O)(=O)Nc1ccc(Oc2ccc([N+](=O)[O-])cc2)cc1 [Example 274, 3-chloro-2-methyl-N-[4-(4-nitrophenoxy)phenyl]benzenesulfonamide]",−,+,+,
"O=S(=O)(Nc1c(F)cccc1F)c1ccc(Oc2ncc(C(F)(F)F)cc2Cl)cc1 [Compound 259, 4-{[3-chloro-5-(trifluoromethy)pyridin-2-yl]oxy}-N-(2,6-difluorophenyl)benzene sulfonamide]",−,+,−,
"O=[N+]([O-])c1ccc(Oc2c(Cl)cc(S(=O)(=O)Nc3cc(F)ccc3F)cc2Cl)c(Cl)c1 [Example 237, 3,5-dichloro-4-(2-chloro-4-nitrophenoxy)-N-(2,5-difluorophenyl)benzenesulfonamide]",+,+,+,
"O=[N+]([O-])c1ccc(Oc2ccc(S(=O)(=O)Nc3ccc(C(F)(F)F)cc3Cl)cc2Cl)c(C(F)(F)F)c1 [Compound 265, 3-chloro-N-[2-chloro-4-(trifluoromethyl)phenyl]-4-[4-nitro-2-(trifluoromethyl)phenoxy]benzenesulfonamide]",+,+,+,
